Among the test systems are HCC-2998 colon; HS 578T breast; MOLT-4 leukemia; NCI-H460 lung; NCI/ADR-RES ovarian; OVCAR-8 ovarian; SF-539 CNS; SK-MEL-2 melanoma; SN12C renal; TK-10 renal.
Common to all, as to test: NCI anticancer screen, dose series, 48 h

The structures appear in SMILES notation.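 Method: 48-hour compound exposure of cells in 96-well plates, five concentrations, linear interpolation of endpoints. Here, GI50 denotes the concentration required for 50% inhibition of growth. The concentration for full growth arrest is given as TGI.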 A value given as a limit tells only on which side of the number the result lay.

Our source for the GI50 and TGI values is PubChem BioAssay (NCI).

For `CN1CCC(CNc2cc(C3(C(=O)Nc4cc(C(=O)Nc5ccc(Cl)c(C(F)(F)F)c5)ccc4F)CC3)ncn2)CC1`, the GI50 is 2390 nM in the assay with HCC-2998 colon; 1990 nM in the assay on HS 578T breast; 2030 nM in the assay with MOLT-4 leukemia; 2130 nM in the assay on NCI-H460 lung; 5.46 µM in the assay with NCI/ADR-RES ovarian; 3.72 µM in the assay on OVCAR-8 ovarian. In addition, the GI50 is 1610 nM with SF-539 CNS, 1900 nM with SK-MEL-2 melanoma, 2560 nM with SN12C renal and 3.89 µM with TK-10 renal. Also, the TGI with HCC-2998 colon came to 5.22 µM; in the assay with HS 578T breast, 6.19 µM; with MOLT-4 leukemia, 6.09 µM; in the assay with NCI-H460 lung, 5.38 µM; with NCI/ADR-RES ovarian, 36.6 µM; in the assay with OVCAR-8 ovarian, 14.9 µM. The TGI was 3.19 µM with SF-539 CNS, 4.02 µM in the assay with SK-MEL-2 melanoma, 8.92 µM with SN12C renal and 12.8 µM in the assay on TK-10 renal.

For the compound `CC(=O)Nc1ccc2c(C)c3c(nc2n1)[nH]c1ccccc13`, the TGI in the assay with HCC-2998 colon was found to be 76.1 µM; in the assay on HS 578T breast, 70 µM; in the assay on MOLT-4 leukemia, 53.6 µM; with NCI-H460 lung it was 49 µM; with NCI/ADR-RES ovarian it was 62.1 µM; in the assay with OVCAR-8 ovarian it was 87.6 µM. Also, the TGI in the assay on SF-539 CNS is more than 100 µM; with SK-MEL-2 melanoma, 55.5 µM; in the assay on SN12C renal, more than 100 µM; in the assay on TK-10 renal, more than 100 µM.

As for `O=C(O)CCc1nc2c(n1-c1ccccc1)C(=O)c1ccccc1C2=O`, the TGI with HCC-2998 colon, in the assay on HS 578T breast, in the assay on MOLT-4 leukemia, in the assay with NCI-H460 lung, with NCI/ADR-RES ovarian and with OVCAR-8 ovarian was more than 100 µM throughout. Moreover, the TGI with SF-539 CNS, in the assay with SK-MEL-2 melanoma, with SN12C renal and in the assay with TK-10 renal was more than 100 µM each time.

As for `[N-]=[N+]=Nc1c(Cc2ccccc2)c(Cl)nc2ccccc12`, the TGI was more than 100 µM with HCC-2998 colon; 54.4 µM in the assay on HS 578T breast; more than 100 µM with MOLT-4 leukemia; more than 100 µM with NCI-H460 lung; more than 100 µM with NCI/ADR-RES ovarian; 46.5 µM in the assay on OVCAR-8 ovarian. Further, the TGI worked out at 41.3 µM with SF-539 CNS, 33.4 µM in the assay with SK-MEL-2 melanoma, 73.8 µM in the assay on SN12C renal and 53 µM in the assay with TK-10 renal.

Regarding `COc1cccc(N2C(=O)CSC2c2cccc(Oc3ccccc3)c2)c1` (stereo not given), the TGI worked out at 7.23 µM in the assay on HCC-2998 colon; 41.4 µM in the assay on HS 578T breast; 28.4 µM in the assay with MOLT-4 leukemia; 12.3 µM with NCI-H460 lung; 40.4 µM in the assay on NCI/ADR-RES ovarian; 50.7 µM in the assay with OVCAR-8 ovarian. Besides, the TGI in the assay on SF-539 CNS came out at 15.9 µM; in the assay with SK-MEL-2 melanoma it was 16.3 µM; in the assay on SN12C renal it was 25 µM; with TK-10 renal, 25.3 µM.

`c1ccc(/C(=N/Nc2nc3ccccc3s2)C2CCCCC2)nc1`: the TGI with HCC-2998 colon was 0.0519 µM; in the assay with HS 578T breast, 50 µM; with MOLT-4 leukemia, 27.8 µM; in the assay on NCI-H460 lung it was 26.1 µM; in the assay on NCI/ADR-RES ovarian it was 10.3 µM; in the assay with OVCAR-8 ovarian, 14.3 µM. In addition, the TGI in the assay with SF-539 CNS was 27.5 µM; with SK-MEL-2 melanoma it was 32.3 µM; in the assay with SN12C renal, 22.7 µM; with TK-10 renal, 14.5 µM.

Turning to `Cn1nc2ccc([N+](=O)[O-])c(Cn3nnc4ccccc43)c2n1`, the TGI in the assay with HCC-2998 colon, in the assay with HS 578T breast, in the assay with MOLT-4 leukemia, in the assay with NCI-H460 lung, with NCI/ADR-RES ovarian and in the assay with OVCAR-8 ovarian was more than 100 µM each time. In addition, the TGI in the assay with SF-539 CNS, with SK-MEL-2 melanoma, in the assay with SN12C renal and with TK-10 renal was more than 100 µM each time.

Take `O=[N+]([O-])c1ccccc1OCCOc1ccccc1[N+](=O)[O-]`: the TGI with HCC-2998 colon, in the assay with HS 578T breast, in the assay on MOLT-4 leukemia, with NCI-H460 lung, in the assay on NCI/ADR-RES ovarian and with OVCAR-8 ovarian was more than 100 µM throughout. The TGI in the assay on SF-539 CNS, in the assay on SK-MEL-2 melanoma, with SN12C renal and in the assay on TK-10 renal was more than 100 µM throughout.

On to `CC(C)/C(Cl)=N/OC(=O)Nc1ccc(Br)cc1`, for which the TGI in the assay on HCC-2998 colon worked out at 29.4 µM; with HS 578T breast, 58.4 µM; in the assay with MOLT-4 leukemia, 5.45 µM; with NCI-H460 lung it was 30.7 µM; with NCI/ADR-RES ovarian it was 27.8 µM; with OVCAR-8 ovarian, 27.8 µM. Besides, the TGI in the assay with SF-539 CNS was 29.1 µM; in the assay with SK-MEL-2 melanoma it was 31.5 µM; with SN12C renal, 4.62 µM; in the assay with TK-10 renal, 26.2 µM.

On to `Cn1c(=O)c2[nH]c(N/N=N/c3nncs3)nc2n(C)c1=O`, for which the TGI in the assay with HCC-2998 colon, in the assay with HS 578T breast, in the assay with MOLT-4 leukemia, in the assay on NCI-H460 lung, in the assay with NCI/ADR-RES ovarian and in the assay with OVCAR-8 ovarian was more than 100 µM in each case. Further, the TGI in the assay with SF-539 CNS, in the assay with SK-MEL-2 melanoma, with SN12C renal and in the assay with TK-10 renal was more than 100 µM in each case.
